Laboratory results published in US12139481B2, “Compositions comprising macrocycle derivatives incorporating bridged macrocycles and methods of producing and using same” (Southwestern Oklahoma State University, priority 2015, dated 2024).

Tests used:
[1] = test system: Cryptococcus neoformans ATCC 90113; assay: Antimicrobial microdilution assay against Cryptococcus neoformans (modified CLSI/NCCLS, optical density); format: cell-based; details: for X more potent than Amphotericin B: C. neoformans, ratio of molar IC50 to Amphotericin B; for C. neoformans IC50 / IC50: in vitro, C. neoformans ATCC 90113; for IC50: read-out: C. neoformans IC50 (mol/L)
Summary of the method: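 Broth microdilution (modified CLSI) in RPMI pH 6.0, samples serially diluted in 20% DMSO/saline and tested in duplicate, growth followed by OD630 before and after incubation. MFC is the lowest concentration giving no growth when 5 μL from clear wells is plated on agar.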

C. glabrata ATCC 90030 = assay: Antifungal broth dilution assay against C. glabrata (modified CLSI); format: cell-based, Candida glabrata; details: for C. glabrata IC50 / IC50: in vitro; for IC50: converted with molecular weight; for X more potent than Amphotericin B: molar IC50 ratio versus amphotericin B
Experimental: (§1) General Experimental Procedures. All organisms were obtained from the American Type Culture Collection (Manassas, VA) and include the fungi Candida albicans ATCC 90028, C. glabrata ATCC 90030, C. krusei ATCC 6258, and Cryptococcus neoformans ATCC 90113, and the bacteria Staphylococcus aureus ATCC 29213 and methicillin-resistant S. aureus ATCC 33591 (MRS). All organisms were tested using modified versions of the CLSI (formerly NCCLS) methods. For all organisms, optical density was used to monitor growth (NCCLS, Reference Method for Broth Dilution Antifungal Susceptibility Testing of Yeasts; Approved Standard M27-A2. National Committee on Clinical Laboratory Standards, 2002 22 (15); and NCCLS, Methods for Dilution Antimicrobial Susceptibility Tests for Bacteria that Grow Aerobically; Approved Standard, Seventh Edition M7-A7. National Committee on Clinical Laboratory Standards, 2006. 26(2)).
(§2) Samples (dissolved in DMSO) were serially-diluted in 20% DMSO/saline and transferred (10 μL) in duplicate to 96 well flat bottom microplates. Inocula were prepared by correcting the OD630 of microbe suspensions in incubation broth [RPMI 1640/0.2% dextrose/0.03% glutamine/MOPS @ pH 6.0 (Cellgro) for Candida spp., Sabouraud Dextrose for C. neoformans, and cation-adjusted Mueller-Hinton (Difco) @ pH 7.3 for Staphylococcus spp. to afford an assay volume of […] and final target inocula of: Candida spp. and C. neoformans: 1.5×10^3, and Staphylococcus spp.: 5.0×10^5 CFU/ml. Final sample test concentrations were 1/100th the DMSO stock concentration. […] All organisms were read at either 530 nm using the Biotek Powerwave XS plate reader (Bio-Tek Instruments, Vermont) prior to and after incubation: Candida spp. at 35° C. for 46-50 h, Staphylococcus spp. at 35° C. for 16-20 h, and C. neoformans at 35° C. for 70-74 h. IC50s (concentrations that afford 50% inhibition relative to controls) were calculated using XLfit 4.2 software (IDBS, Alameda, CA) using fit model 201. The MIC is defined as the lowest test concentration that allows no detectable growth. Minimum fungicidal or bactericidal concentrations were determined by removing 5 μl from each clear (or blue) well, transferring to fresh media, and incubating as previously mentioned. The MFC/MBC is defined as the lowest test concentration that kills the organism (allows no growth).
(§3) Primary Analysis. Samples were tested in duplicate at one test concentration (50 μg/mL), and percent inhibitions were calculated relative to blank and growth controls. Samples showing 50% inhibition in at least one test organism were selected for dose response (Secondary) studies.
(§4) Secondary Analysis. Extracts from the Primary Assay, and first-run pure compounds and column fractions were tested in duplicate at 3 test concentrations (5-fold dilutions). Samples dissolved to 20 mg/mL in DMSO were tested at 200, 40, and 8 μg/mL. Samples dissolved to 2 mg/mL in DMSO were tested at 20, 4, and 0.8 μg/mL.

[2] = test system: L. donovani promastigotes; assay: Antileishmanial Alamar Blue assay on promastigotes; format: cell-based, Leishmania donovani; details: for X more potent than Pentamidine: L. donovani, ratio of molar IC50 to Pentamidine; for L. donovani IC50 / IC50: promastigotes, 48 hours, Alamar Blue; for IC50: read-out: L. donavani IC50
Experimental: Methods: The compounds were screened in vitro against the promastigote forms of the leishmania parasites employing the Alamar Blue assay as discussed below.
Antileishmanial activity of the compounds was tested in vitro against a culture of L. donovani promastigotes, grown in RPMI 1640 medium supplemented with 10% fetal calf serum (FCS, Gibco Chem. Co., Grand Island, NY) at 26° C. A 3-day-old culture was diluted to 5×10^5 promastigotes/mL. Drug dilutions (50-3.1 μg/mL) were prepared directly in cell suspension in 96-well plates. Plates were incubated at 26° C. for 48 hours, and growth of leishmania promastigotes was determined by Alamar Blue assay. Standard fluorescence was measured on a FLUOstar® Galaxy plate reader (BMG Lab Technologies, Ortenberg, Germany) at an excitation wavelength of 544 nm and emission wavelength of 590 nm. Pentamidine and amphotericin B were used as the standard antileishmanial agents. Percent growth was calculated and plotted versus test concentration for computing the IC50 values.

[3] = test system: Staphylococcus aureus ATCC 29213; assay: Antibacterial broth dilution assay against S. aureus (modified CLSI); format: cell-based
Experimental: as §1, §2, §3, §4

Row | Molecule | X more potent than Amphotericin B [1] | C. neoformans IC50 [1] [µg/mL] | IC50 [1] [nM] | C. glabrata IC50 (C. glabrata ATCC 90030) [µg/mL] | IC50 (C. glabrata ATCC 90030) [µM] | X more potent than Amphotericin B (C. glabrata ATCC 90030) | X more potent than Pentamidine [2] | L. donovani IC50 [2] [µg/mL] | IC50 [2] [µM] | S. aureus IC50 ([3]; in vitro) [µg/mL] | IC50 ([3]; in vitro, converted with molecular weight) [µM] | X more potent than ciprofloxacen ([3]; molar IC50 ratio versus ciprofloxacen)
1 | CC(=O)[O-].F[P-](F)(F)(F)(F)F.O.[Co+2].c1ccc(CN2CCCNCCN(Cc3ccccc3)CCCNCC2)cc1 [BME07, [Co(Bn2Cyclam)(OAc)PF6•H2O] | 0.02 | 6.980 | 10600 | 0.597 | 0.903 | 1.57 | – | – | – | – | – | –
2 | O.[Cl][Fe-2]([Cl])([Cl])[Cl].[Fe+2].c1ccc(CN2CCCN3CCCN(CCCN(Cc4ccccc4)CC3)CC2)cc1 [BME09, [Fe(Bn2PBCyclam)][FeCl4]•H2O] | 0.15 | 1.070 | 1550 | – | – | – | 0.26 | 14.10 | 20.4 | 5.130 | 7.41 | 0.04
3 | CC(=O)[O-].CC(=O)[O-].CC(=O)[O-].CN1CCCN2CCN(CCCN(Cc3cc(CN4CCCN5CCN(C)CCCN(CC5)CC4)cc(CN4CCCN5CCN(C)CCCN(CC5)CC4)c3)CC2)CC1.F[P-](F)(F)(F)(F)F.F[P-](F)(F)(F)(F)F.F[P-](F)(F)(F)(F)F.[Cu+2].[Cu+2].[Cu+2] [BNS25, [Cu3(tris-CB-Cyclams)(OAc)3][PF6]3] | 0.20 | 1.950 | 1190 | 5.420 | 3.31 | 0.43 | – | – | – | – | – | –
4 | C1CNCCN2CCCNCCN(C1)CCC2 [DJD27, H2PBCyclam] | 0.03 | 1.830 | 7610 | 3.380 | 14.1 | 0.10 | – | – | – | – | – | –
5 | CC(=O)[O-].Clc1cc(CN2CCCN3CCN(CCCNCC2)CC3)cc(Cl)n1.F[P-](F)(F)(F)(F)F.[Co+2] [KLC002A] | – | – | – | 16.070 | 24.8 | 0.06 | – | – | – | – | – | –
6 | CN1CCN2CCN(CC1)CCN(Cc1ccccn1)CC2 [KRW32, Me1Pic1-CB-cyclen] | 0.01 | 5.490 | 18100 | 14.360 | 47.3 | 0.03 | – | – | – | – | – | –
7 | CC(=O)[O-].CC(=O)[O-].CN1CCCN2CCN(CCCN(Cc3ccc(CN4CCCN5CCN(C)CCCN(CC5)CC4)cc3)CC2)CC1.F[P-](F)(F)(F)(F)F.F[P-](F)(F)(F)(F)F.[Zn+2].[Zn+2] [KS34, [Zn2(p-CB-cyclams)(OAc)2](PF6)2] | 0.41 | 0.650 | – | 15.760 | – | 0.10 | 0.25 | 23.49 | – | – | – | –
8 | CC(=O)[O-].CC(=O)[O-].F[P-](F)(F)(F)(F)F.F[P-](F)(F)(F)(F)F.O.O.[Co+2].[Co+2].c1cc(CN2CCNCCN3CCN(CC3)CC2)cc(CN2CCNCCN3CCN(CC3)CC2)c1 [OB36, [Co2(m-SB-Cyclens)(OAc)2][PF6]2•2H2O] | 0.32 | ≤ 0.800 | 754 | 3.720 | 3.51 | 0.40 | – | – | – | – | – | –
9 | c1ccc(CN2CCN3CCN(CC2)CCN(Cc2ccccn2)CC3)nc1 [PW95] | – | – | – | 14.850 | 39 | 0.04 | – | – | – | – | – | –
10 | C1CNCCN2CCCNCCN(C1)CCC2.CC(=O)[O-].F[P-](F)(F)(F)(F)F.F[P-](F)(F)(F)(F)F.O.[Co+2].[NH4+] [SLK38B, [Co(H2PBCyclam)(OAc)]PF6•NH4PF6•H2O] | 0.03 | 6.230 | 9100 | 0.375 | 0.548 | 2.59 | – | – | – | – | – | –
11 | [Co2(m-SB-cyclam-cyclen)(OAc)2][PF6]4•H2O [CMB032] | 0.41 | ≤ 0.800 | 588 | 1.310 | 0.963 | 1.47 | – | – | – | – | – | –
12 | [Co2(p-SB-cyclam-cyclen)(OAc)2][PF6]2 [CMB016A] | 0.16 | 1.570 | 1490 | 1.100 | 1.04 | 1.36 | 0.17 | 33.81 | 32.1 | – | – | –
13 | [Co3(tris-CB-Cyclams)(OAc)1.51][PF6]4.5 [BNS24] | 0.52 | ≤ 0.800 | 456 | 1.490 | 0.85 | 1.67 | – | – | – | – | – | –
14 | [Cu2(m-cyclam-homocyclen)(OAc)1.5][PF6]2.5 [AW051A] | 0.23 | 1.172 | 1020 | 7.253 | 6.32 | 0.22 | – | – | – | – | – | –
15 | [Cu2(p-CB-cyclam-cyclen)(OAc)2][PF6]2 [CMB029] | 0.32 | ≤ 0.800 | 734 | 4.190 | 3.84 | 0.37 | – | – | – | – | – | –
16 | [Ni2(p-CB-Homocyclens)(OAc)2][PF6]2 [TJH378A] | 0.03 | 7.540 | 6980 | 5.150 | 4.77 | 0.30 | – | – | – | – | – | –
17 | [Ni2(p-CB-cyclam-cyclen)(OAc)2][PF6]2 [CMB028] | 0.19 | 1.330 | 1230 | 4.490 | 4.16 | 0.34 | 0.19 | 30.69 | 28.4 | – | – | –
18 | [m-(BMBCyclams)]Br2 [DJD05] | 0.05 | 3.250 | 4560 | 4.213 | 5.91 | 0.24 | 0.21 | 18.18 | 25.5 | – | – | –
19 | [p-(DCP-BMBCyclams)]Br4 [SLK26] | – | – | – | 5.705 | 4.78 | 0.30 | 0.43 | 14.76 | 12.4 | – | – | –
